Measured values from PubChem BioAssay AID1963873 (Molecular Pharmacology Branch, DTP, NCI, 2024).
“And” between values parts separate entries of the source, which are not always exact repeats. Equal values may be shown once.

Tested on: 276233-004-R-J1-PDC KRAS spheroids with HUVEC/MSC, viability
Experiment: Anticancer human tumor 276233-004-R-J1-PDC patient-derived colon adenocarcinoma cell line growth inhibition [KRAS2]
Conditions: for viability, T/C: stronger effect = lower value; active = viability on the fitted dose curve at most 10% of control; inactive = the rest
How it was run: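 Combination screen of spheroid viability in tumor-cell co-cultures with endothelial (HUVEC) and mesenchymal stem cell stroma. Each agent was tested in half-log dilutions, topping at clinical Cmax or at 10 microM without a known Cmax.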

[1] = curve of first compound, second compound 0.1 µM
[2] = curve of first compound, second compound 0.316 µM
[3] = curve of first compound, second compound 1 µM
[4] = curve of first compound, second compound 3.16 µM
[5] = second compound 0.1 µM, first compound 0.0316 µM
[6] = second compound 0.1 µM, first compound 0.1 µM
[7] = second compound 0.1 µM, first compound 0.316 µM
[8] = second compound 0.1 µM, first compound 1 µM
[9] = second compound 0.1 µM, first compound 3.16 µM
[10] = second compound 0.1 µM, first compound 10 µM
[11] = second compound 0.316 µM, first compound 0.0316 µM
[12] = second compound 0.316 µM, first compound 0.1 µM
[13] = second compound 0.316 µM, first compound 0.316 µM
[14] = second compound 0.316 µM, first compound 1 µM
[15] = second compound 0.316 µM, first compound 3.16 µM
[16] = second compound 0.316 µM, first compound 10 µM
[17] = second compound 1 µM, first compound 0.0316 µM
[18] = second compound 1 µM, first compound 0.1 µM
[19] = second compound 1 µM, first compound 0.316 µM
[20] = second compound 1 µM, first compound 1 µM
[21] = second compound 1 µM, first compound 3.16 µM
[22] = second compound 1 µM, first compound 10 µM
[23] = second compound 3.16 µM, first compound 0.0316 µM
[24] = second compound 3.16 µM, first compound 0.1 µM
[25] = second compound 3.16 µM, first compound 0.316 µM
[26] = second compound 3.16 µM, first compound 1 µM
[27] = second compound 3.16 µM, first compound 3.16 µM
[28] = second compound 3.16 µM, first compound 10 µM
[29] = curve of first compound, second compound 10 µM
[30] = second compound 0.1 µM, first compound 0.00316 µM
[31] = second compound 0.1 µM, first compound 0.01 µM
[32] = second compound 0.316 µM, first compound 0.00316 µM
[33] = second compound 0.316 µM, first compound 0.01 µM
[34] = second compound 1 µM, first compound 0.00316 µM
[35] = second compound 1 µM, first compound 0.01 µM
[36] = second compound 3.16 µM, first compound 0.00316 µM
[37] = second compound 3.16 µM, first compound 0.01 µM
[38] = second compound 10 µM, first compound 0.00316 µM
[39] = second compound 10 µM, first compound 0.01 µM
[40] = second compound 10 µM, first compound 0.0316 µM
[41] = second compound 10 µM, first compound 0.1 µM
[42] = second compound 10 µM, first compound 0.316 µM
[43] = second compound 10 µM, first compound 1 µM
[44] = second compound 0.1 µM, first compound 0.000316 µM
[45] = second compound 0.1 µM, first compound 0.001 µM
[46] = second compound 0.316 µM, first compound 0.000316 µM
[47] = second compound 0.316 µM, first compound 0.001 µM
[48] = second compound 1 µM, first compound 0.000316 µM
[49] = second compound 1 µM, first compound 0.001 µM
[50] = second compound 3.16 µM, first compound 0.000316 µM
[51] = second compound 3.16 µM, first compound 0.001 µM
[52] = second compound 10 µM, first compound 0.000316 µM
[53] = second compound 10 µM, first compound 0.001 µM
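Note: cells exposed to agents for seven days before viability read.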
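Throughout, for viability, T/C: 100% = DMSO vehicle control wells and lower values mean fewer viable cells.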

CC1(C)CCC(CN2CCN(c3ccc(C(=O)NS(=O)(=O)c4ccc(NCC5CCOCC5)c([N+](=O)[O-])c4)c(Oc4cnc5[nH]ccc5c4)c3)CC2)=C(c2ccc(Cl)cc2)C1 + C=CC(=O)N1CCN(c2nc(OCC3CCCN3C)nc3c2CCN(c2cccc4cccc(C)c24)C3)CC1CC#N
active: viability, T/C [27] 0.96% | viability, T/C [28] 0.77%
8090 nM: IC50 [2]
inactive: viability, T/C (second compound 0.0316 µM, first compound 0.0316 µM) 90.7% | viability, T/C (second compound 0.0316 µM, first compound 0.1 µM) 102% | viability, T/C (second compound 0.0316 µM, first compound 0.316 µM) 113% | viability, T/C (second compound 0.0316 µM, first compound 1 µM) 94.4% | viability, T/C (second compound 0.0316 µM, first compound 3.16 µM) 88% | viability, T/C (second compound 0.0316 µM, first compound 10 µM) 56% | viability, T/C [5] 80.3% | viability, T/C [6] 113% | viability, T/C [7] 85.5% | viability, T/C [8] 86.2% | viability, T/C [9] 96.6% | viability, T/C [10] 61.4% | viability, T/C [11] 102% | viability, T/C [12] 89% | viability, T/C [13] 87.1% | viability, T/C [14] 126% | viability, T/C [15] 82.1% | viability, T/C [16] 42.7% | viability, T/C [17] 83.7% | viability, T/C [18] 111% | viability, T/C [19] 90.5% | viability, T/C [20] 100% | viability, T/C [21] 48.4% | viability, T/C [22] 22.1% | viability, T/C [23] 47.6% | viability, T/C [24] 42.6% | viability, T/C [25] 41.9% | viability, T/C [26] 23.2%
> 10000 nM: IC50 (curve of first compound, second compound 0.0316 µM) | IC50 [1]
3050 nM: IC50 [3]
< 31.6 nM: IC50 [4]

CCNC(=O)CC1N=C(c2ccc(Cl)cc2)c2cc(OC)ccc2-n2c(C)nnc21 (stereo unspecified)
inactive: viability, T/C (compound 0.0316 µM) 95.8% [middle of 5 runs] | viability, T/C (compound 0.1 µM) 88.7% [middle of 5 runs] | viability, T/C (compound 0.316 µM) 68.2% [middle of 5 runs] | viability, T/C (compound 1 µM) 70.9% [middle of 5 runs] | viability, T/C (compound 3.16 µM) 71.3% [middle of 5 runs]
> 10000 nM and 5560 nM: IC50 (curve of compound)

CCN1CCN(Cc2ccc(Nc3ncc(F)c(-c4cc(F)c5nc(C)n(C(C)C)c5c4)n3)nc2)CC1 + CC1OCC2(CCN(c3cnc(Sc4ccnc(N)c4Cl)c(N)n3)CC2)C1N
> 1000 nM: IC50 [1] | IC50 [2] | IC50 [3] | IC50 [4] | IC50 [29]
inactive: viability, T/C [30] 89.9% | viability, T/C [31] 99.2% | viability, T/C [5] 87% | viability, T/C [6] 76.5% | viability, T/C [7] 93.5% | viability, T/C [8] 111% | viability, T/C [32] 81.3% | viability, T/C [33] 89.6% | viability, T/C [11] 80.7% | viability, T/C [12] 85.6% | viability, T/C [13] 104% | viability, T/C [14] 99.5% | viability, T/C [34] 83.7% | viability, T/C [35] 86% | viability, T/C [17] 69.3% | viability, T/C [18] 72.3% | viability, T/C [19] 93.4% | viability, T/C [20] 67% | viability, T/C [36] 74.5% | viability, T/C [37] 66.5% | viability, T/C [23] 68.8% | viability, T/C [24] 62.8% | viability, T/C [25] 54.7% | viability, T/C [26] 70% | viability, T/C [38] 51.2% | viability, T/C [39] 71% | viability, T/C [40] 58.7% | viability, T/C [41] 53.6% | viability, T/C [42] 64.6% | viability, T/C [43] 63%

Cn1ncnc1[C@H]1c2n[nH]c(=O)c3cc(F)cc(c23)N[C@@H]1c1ccc(F)cc1 + COc1cc2nc(C)nc(NC(C)c3cc(N)cc(C(F)(F)F)c3)c2cc1OC1CCOC1
> 100 nM: IC50 [1] | IC50 [2] | IC50 [3] | IC50 [4]
< 0.316 nM: IC50 [29]
inactive: viability, T/C [44] 90% | viability, T/C [45] 81% | viability, T/C [30] 76.2% | viability, T/C [31] 87.1% | viability, T/C [5] 89.7% | viability, T/C [6] 76% | viability, T/C [46] 89.1% | viability, T/C [47] 96.7% | viability, T/C [32] 84.7% | viability, T/C [33] 83.6% | viability, T/C [11] 87.9% | viability, T/C [12] 83.2% | viability, T/C [48] 83.3% | viability, T/C [49] 91% | viability, T/C [34] 82.6% | viability, T/C [35] 85% | viability, T/C [17] 87.6% | viability, T/C [18] 79.5% | viability, T/C [50] 85.3% | viability, T/C [51] 90.9% | viability, T/C [36] 85.2% | viability, T/C [37] 99.5% | viability, T/C [23] 68.1% | viability, T/C [24] 86.1% | viability, T/C [52] 33.7% | viability, T/C [53] 40.1% | viability, T/C [38] 29.1% | viability, T/C [39] 34.8% | viability, T/C [40] 29.4% | viability, T/C [41] 27.2%

Cn1ncnc1[C@H]1c2n[nH]c(=O)c3cc(F)cc(c23)N[C@@H]1c1ccc(F)cc1 + CNCc1ccccc1-c1csc(C(C)Nc2nc(C)nc3cc(OC)c(OC)cc23)c1
inactive: viability, T/C [44] 113% | viability, T/C [45] 115% | viability, T/C [30] 98.2% | viability, T/C [31] 107% | viability, T/C [5] 87.6% | viability, T/C [6] 120% | viability, T/C [46] 96.1% | viability, T/C [47] 119% | viability, T/C [32] 116% | viability, T/C [33] 124% | viability, T/C [11] 83.2% | viability, T/C [12] 98.5% | viability, T/C [48] 56.7% | viability, T/C [49] 69.5% | viability, T/C [34] 75.1% | viability, T/C [35] 68.2% | viability, T/C [17] 50.2% | viability, T/C [18] 78%
< 0.316 nM: IC50 [4] | IC50 [29]
active: viability, T/C [50] 9.27% | viability, T/C [51] 0.64% | viability, T/C [36] 0.7% | viability, T/C [37] 0.62% | viability, T/C [23] 0.53% | viability, T/C [24] 0.74% | viability, T/C [52] 0.22% | viability, T/C [53] 0.22% | viability, T/C [38] 0.22% | viability, T/C [39] 0.2% | viability, T/C [40] 0.18% | viability, T/C [41] 2.9%
> 100 nM: IC50 [1] | IC50 [2] | IC50 [3]

CC(C)NCC(C(=O)N1CCN(c2ncnc3c2C(C)CC3O)CC1)c1ccc(Cl)cc1 (stereo unspecified) + CC1OCC2(CCN(c3cnc(Sc4ccnc(N)c4Cl)c(N)n3)CC2)C1N
183 nM: IC50 [29]
inactive: viability, T/C [5] 77.2% | viability, T/C [6] 75.2% | viability, T/C [7] 56.3% | viability, T/C [8] 65.9% | viability, T/C [9] 56.1% | viability, T/C [10] 51.5% | viability, T/C [11] 90.4% | viability, T/C [12] 69% | viability, T/C [13] 55.8% | viability, T/C [14] 52.8% | viability, T/C [15] 49.5% | viability, T/C [16] 47.5% | viability, T/C [17] 68% | viability, T/C [18] 59.5% | viability, T/C [19] 48.4% | viability, T/C [20] 52.8% | viability, T/C [21] 48.1% | viability, T/C [22] 40.2% | viability, T/C [23] 63.3% | viability, T/C [24] 58.4% | viability, T/C [25] 52.1% | viability, T/C [26] 41.4% | viability, T/C [27] 37.1% | viability, T/C [28] 31.5% | viability, T/C [40] 59.1% | viability, T/C [41] 57% | viability, T/C [42] 38.1% | viability, T/C [43] 41.7% | viability, T/C (second compound 10 µM, first compound 3.16 µM) 36.1% | viability, T/C (second compound 10 µM, first compound 10 µM) 19.1%
2080 nM: IC50 [2]
> 10000 nM: IC50 [1]
697 nM: IC50 [3]
343 nM: IC50 [4]
